Data on two compounds can be found in US12133855B2, “Lipid-like nanocomplexes and uses thereof” (Trustees of Tufts College, priority 2018, dated 2024).

A short description of series [1]: Thiol-triggered Nile red release. The series is classed as physicochemical. On the procedure:
Lipidoids were fabricated into nanoparticles for all delivery applications. Briefly, lipidoids were mixed with sodium acetate buffer (25 mM, pH 5.2), sonicated for 30 min in an ultrasonic bath, followed by another 30 min of vigorous vortexing. The as-prepared blank LNPs were stored at 4° C. For Cy5-RNA/LNP, mRNA/LNP and protein/LNP complexation, blank lipidoid nanoparticles were mixed with RNA molecules or (−30)GFP-Cre protein in PBS buffer (pH 7.4) following our previously reported procedures and incubated at room temperature for another 30 min before use. Typical procedures for Nile red encapsulation are as follows: 5 μL of Nile red stock solution in acetone was added into an empty vial, which was then placed in a vacuum oven to completely remove the organic solvent. Then, a predetermined amount of blank LNP stock solution (1.0 mg/mL) was added into the vial. The mixture was sonicated for 40 min in an ultrasonic bath and stirred overnight at room temperature. The final concentration of Nile red was adjusted to 6.6×10-7 mol L-1 and 6×10-7 mol L-1 for thiol triggered release study and cell incubation, respectively, by diluting with PBS as necessary. Typical procedures for CPT and DiO/DiI FRET pair encapsulation are as follows: 100 μL of DiO/DiI stock solution in MeOH was charged into an empty vial and placed in a vacuum oven to remove the organic solvent. Lipidoids (2.0 mg) in 200 μL of methanol were then added into the vial and stirred to produce a homogeneous solution. Then, 600 μL of DI water was added dropwise in 10 min with continuous stirring. The resulting mixture was dialyzed against DI water for 24 h (Thermo Scientific Slide-A-Lyzer Dialysis Cassette, MWCO=3500 Da), and fresh water was replaced every 4 h. Typical procedures for encapsulation of calcein and doxonorubicin hydrochloride are as follows: precalculated amounts of calcein or Dox stock solutions in DI water was diluted into 800 μL with sodium acetate buffer, and used as the selective solvents to trigger the self-assembly process of lipidoids in methanol (5 mg/mL), respectively. The unloaded calcein or Dox was removed by dialysis against DI water (Thermo Scientific Slide-A-Lyzer Dialysis Cassette, MWCO=3500 Da).
The reduction triggered release behavior of encapsulated cargoes was then studied by using nile red loaded 75-OCholB LNPs (NR/75-OCholB), taking advantage of the microenvironmental polarity sensitive photophysical property of nile red. […] In the meantime, 20 μM Cysteine treated NR/75-OCholB released 4.2% of nile red in 2 h and 6.9% in 6 h, which could be ascribed to the previously discussed minimal structural and morphological changes of the LNPs under the stimulus of low concentration of thiols (FIGS. 11A and 11C). […] Furthermore, the binding affinity of OCholB LNPs with negatively charged macromolecular cargo, Cy5-RNA, was examined. […] Additionally, similar to the responsiveness study, it is reasonable that the cargo release profiles could depend on both of the species and concentrations of the thiols-containing regents. Above all, OCholB LNPs loaded with cargoes are relatively stable in the presence of low concentration of thiols and the triggered release behaviors of cargo molecules with different physicochemical properties (hydrophobic/hydrophilic, low/high molecular weight, etc.) could be expected.

For series [2], the system named is HeLa cells. The series can be described thus: Internalization of calcein loaded nanoparticles. It counts as cell-based. The note with it: 8 h of exposure. On the procedure:
The internalization kinetics and efficiencies of OCholB LNPs were then studied using NR loaded LNPs and HeLa cells. […] Next, all of the NR delivery efficiencies of eight OCholB LNPs were determined after 8 h of exposure. […] Representative fluorescent images of NR/LNPs (NR/75-OCholB, NR/76-OCholB and NR/77-OCholB) treated HeLa cells are shown in FIG. 12D, from which it is easily observed that NR was delivered into the cells and mainly distributed in cytoplasm, by OCholB LNPs. Next, the internalization of negatively charged hydrophilic fluorescent dye, calcein, was studied. […] Next, the use of OCholB LNPs for the intracellular delivery of macromolecular cargo was explored, using fluorescent recombinant (−30)GFP-Cre protein and HeLa-DsRed cells as the model system. […] Delivery efficiency was tested at a range of (−30)GFP-Cre protein concentrations (25, 50 and 100 nM), with a consistent lipid/protein ratio (i.e., delivery with the final lipid concentration of 1.7, 3.3, and 6.6 μg mL^−1 respectively). 33.2%, 43.8% and 74% of GFP positive (GFP^+) cells were recorded for (−30)GFP-Cre/Lpf2k treated cells with the concentration of (−30)GFP-Cre 25 nM, 50 nM and 100 nM, respectively. […]

Series [3] has as its system Ai14 mice. The series can be described thus: In vivo genome editing, intramuscular injection, tdTomato expression. Also on record: species or system mouse. To be noted: single IM dose, day 10. On the procedure:
Similar to the in vitro transfection study, lipidoid nanoparticles were prepared for mRNA or protein loading and in vivo delivery. Ai14 mice were housed in a temperature and humidity controlled facility with a 12 h light/dark cycle. Three mice in each group were injected (intravenously or intramuscularly) with Cre mRNA-loaded or (−30)GFP-Cre protein-loaded LNPs formulations. Organs including heart, liver, spleen, lung and kidney from all groups were collected at day 10 (intramuscular injection) or 14 (intravenous injection) after injection. The tissues were fixed overnight in 4% paraformaldehyde (PFA) and dehydrated in 30% sucrose before being froze in OCT and sectioned into 10-15 μm slices. The slices were then collected and stained with DAPI for fluorescence imaging (BZ-X Analyzer fluorescence microscopy).
Cre-loxP system and transgenic Ai14 mouse model were used in the in vivo genome editing study. […] When the Cre recombinase mediated gene reorganization occurs, the STOP cassette could be removed, resulting in the expression of fluorescent tdTomato reporter protein.
Local delivery through intramuscular injection (IM injection; rear leg) using (−30)GFP-Cre protein and Cre mRNA loaded 76-OCholB LNPs (FIG. 17B). Ai14 mice (n=3) received single dose of (−30)GFP-Cre/LNPs (50 μg of protein) or mRMA/LNPs (10 μg of mRNA) injection at day 1 and were sacrificed at day 10. […]

Take `CCN(CC)CCN(CCC(=O)OCCSSCCNC(=O)OC1CCC2(C)C(=CCC3C2CCC2(C)C(C(C)CCCC(C)C)CCC32)C1)CCC(=O)OCCSSCCNC(=O)OC1CCC2(C)C(=CCC3C2CCC2(C)C(C(C)CCCC(C)C)CCC32)C1` (centres unmarked) [Lipidoid 75-OCholB]: the “encapsulated nile red released” value in series [1] (20 μM Cysteine, 2 h) was 4.2%; in series [1] (20 μM Cysteine, 6 h), 6.9%; in series [1] (1 mM DTT, 2 h), 33.5%; in series [1] (1 mM DTT, 6 h) it was 44.0%; in series [1] (5 mM DTT, 2 h) it was 61.7%; in series [1] (5 mM DTT, 6 h), 84.2%. The “encapsulated nile red released” value turned out to be 67.4% in series [1] (10 mM DTT, 2 h) and 86.4% in series [1] (10 mM DTT, 6 h). For the same compound, the “mean fluorescent intensity vs free calcein-treated cells” value in series [2] was about 9.4 folds.
With `CC(C)CCCC(C)C1CCC2C3CC=C4CC(OC(=O)NCCSSCCOC(=O)CCN(CCC(=O)OCCSSCCNC(=O)OC5CCC6(C)C(=CCC7C6CCC6(C)C(C(C)CCCC(C)C)CCC76)C5)CCN5CCCC5)CCC4(C)C3CCC12C` (centres unmarked) [Lipidoid 76-OCholB], the “tdTomato fluorescent signals in skeletal muscle” value in series [3] ((−30)GFP-Cre protein loaded, 50 μg protein) is given as “strong tdTomato fluorescent signals”; in series [3] (Cre mRNA loaded, 10 μg mRNA) it was “strong tdTomato fluorescent signals”.
